The structures appear in SMILES notation.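 Five concentrations, 48 hours, 96-well plates. Here, GI50 denotes the concentration required for 50% inhibition of growth.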 Calls of active or inactive are those of the source. No stated cut-off is given here; in the data, active = GI50 up to about 1.1 µM and inactive = higher.

Test systems include UO-31; TK-10; OVCAR-4; HCC 2998; SW-620; KM12; NCI-H522; SK-MEL-2; A498; SN12C; SR; NCI-H460; MOLT-4; CCRF-CEM; M14; IGROV-1; LOX IMVI; SF-539; NCI/ADR-RES; MCF7.
Common to all, as to experiment: NCI anticancer screen, dose series, 48 h

On to `COC(=O)C1CCC2(CC1)NC(=O)NC2=O` (stereo unspecified), for which the GI50 with UO-31, with TK-10, with OVCAR-4, in the experiment on HCC 2998, with SW-620 and with KM12 was > 100 µM (inactive) each time. Further, the GI50 in the experiment with NCI-H522, in the experiment on SK-MEL-2, with A498, in the experiment with SN12C, in the experiment with SR and with NCI-H460 was > 100 µM (inactive) throughout. Besides, the GI50 in the experiment with MOLT-4, with CCRF-CEM, with M14, with IGROV-1, in the experiment on LOX IMVI and in the experiment on SF-539 was > 100 µM (inactive) in each case.
`CCC(C)(C)NC1=C(NC(C)=O)C(=O)c2ccccc2C1=O`: the GI50 with UO-31 is 27.5 µM (inactive); in the experiment on TK-10, > 75 µM (inactive); with OVCAR-4 it was > 75 µM (inactive); in the experiment with HCC 2998 it was > 75 µM (inactive); in the experiment on SW-620, 35.1 µM (inactive); in the experiment with KM12, 57.3 µM (inactive). Also, the GI50 in the experiment with NCI-H522 was 10.2 µM (inactive); with SK-MEL-2 it was 21 µM (inactive); in the experiment with SN12C it was > 75 µM (inactive); with SR it was 31.3 µM (inactive); with NCI-H460 it was 39.5 µM (inactive); with MOLT-4, 13.9 µM (inactive). The GI50 is 17 µM (inactive) with CCRF-CEM; > 75 µM (inactive) with M14; > 75 µM (inactive) in the experiment with IGROV-1; 29.8 µM (inactive) with LOX IMVI; 24.4 µM (inactive) in the experiment with SF-539.
As to `CCCCCCCCSC(SCCCCCCCC)=C1C(=O)N(c2ccccc2)N=C1C`, the GI50 is 27.5 µM (inactive) in the experiment on UO-31; 42.6 µM (inactive) in the experiment on TK-10; 71.3 µM (inactive) in the experiment on HCC 2998; 14.5 µM (inactive) with SW-620; 33.7 µM (inactive) with KM12; 20.3 µM (inactive) in the experiment with NCI-H522. Also, the GI50 in the experiment on SK-MEL-2 is 58.6 µM (inactive); in the experiment with A498, 24.3 µM (inactive); in the experiment with SN12C, 33.7 µM (inactive); in the experiment on SR it was 14.9 µM (inactive); in the experiment with NCI-H460 it was 40.3 µM (inactive); in the experiment on MOLT-4 it was 28.4 µM (inactive). Besides, the GI50 in the experiment with CCRF-CEM was 16.1 µM (inactive); in the experiment on M14, 83 µM (inactive); with IGROV-1, 43.1 µM (inactive); in the experiment on LOX IMVI, 17.7 µM (inactive).
Turning to `O=C1CCC(c2nc3cc(Cl)ccc3o2)C(=O)N1` (stereo unspecified), the GI50 in the experiment with UO-31, in the experiment on TK-10, in the experiment on OVCAR-4, with HCC 2998, in the experiment with SW-620 and in the experiment on KM12 was > 100 µM (inactive) throughout. Moreover, the GI50 in the experiment on NCI-H522, in the experiment with SK-MEL-2, in the experiment on A498, in the experiment on SN12C, in the experiment on SR and in the experiment on NCI-H460 was > 100 µM (inactive) in each case. The GI50 in the experiment with MOLT-4, with CCRF-CEM, with M14, with IGROV-1, in the experiment with LOX IMVI and in the experiment on SF-539 was > 100 µM (inactive) in each case.
As to `COC(=O)/C=C\C1C(C(=O)OC)C2(C(=O)OC)CCC1(C(=O)OC)N2` (stereo unspecified), the GI50 with UO-31 was 17 µM (inactive); in the experiment with TK-10, 4.47 µM (inactive); in the experiment with OVCAR-4, 19.1 µM (inactive); in the experiment with HCC 2998, 17.3 µM (inactive); in the experiment with SW-620, 3.13 µM (inactive); in the experiment on KM12, 20.5 µM (inactive). For the same molecule, the GI50 with NCI-H522 was 0.681 µM (active); in the experiment with SK-MEL-2 it was 15.5 µM (inactive); in the experiment with A498, 18.1 µM (inactive); in the experiment on SN12C it was 16.3 µM (inactive); in the experiment with SR, 5.37 µM (inactive); in the experiment with NCI-H460, 21.6 µM (inactive). Besides, the GI50 was 3.77 µM (inactive) with MOLT-4; 4.15 µM (inactive) with CCRF-CEM; 14.9 µM (inactive) with M14; 26.9 µM (inactive) in the experiment with IGROV-1; 13.4 µM (inactive) in the experiment on LOX IMVI; 17.8 µM (inactive) in the experiment with SF-539.
Turning to `N#Cc1cnsc1`, the GI50 in the experiment on UO-31, in the experiment on TK-10, with OVCAR-4, in the experiment on HCC 2998, in the experiment with SW-620 and in the experiment with KM12 was > 100 µM (inactive) each time. The GI50 with SK-MEL-2, in the experiment with A498, in the experiment with SN12C, in the experiment on SR, with NCI-H460 and in the experiment with MOLT-4 was > 100 µM (inactive) in each case. Also, the GI50 with CCRF-CEM, with M14, in the experiment with IGROV-1, in the experiment on LOX IMVI and with SF-539 was > 100 µM (inactive) throughout.
Consider `COC(=O)/C(=C1\OC(=O)C(c2ccc(Cl)cc2)=C1O)c1ccc(Cl)cc1`, for which the GI50 in the experiment on UO-31 is 28.7 µM (inactive); in the experiment with TK-10 it was 31 µM (inactive); in the experiment with OVCAR-4, 9.71 µM (inactive); in the experiment on HCC 2998, 28.7 µM (inactive); in the experiment on SW-620, 35.7 µM (inactive); in the experiment on KM12, 23.8 µM (inactive). For the same molecule, the GI50 in the experiment on NCI-H522 was 17.2 µM (inactive); with A498 it was 16.9 µM (inactive); in the experiment with SN12C, 30.5 µM (inactive); in the experiment on SR it was 25.8 µM (inactive); in the experiment with NCI-H460, 26.1 µM (inactive); in the experiment on MOLT-4, 22.5 µM (inactive). In addition, the GI50 was 24.2 µM (inactive) in the experiment with CCRF-CEM; 31.2 µM (inactive) in the experiment on M14; 52 µM (inactive) in the experiment on IGROV-1; 21.3 µM (inactive) in the experiment with LOX IMVI; 23.4 µM (inactive) in the experiment with SF-539.
With `CN(C)CCN(C)C(=O)c1cccc2cccc(C(=O)O)c12`, the GI50 in the experiment on UO-31 was > 100 µM (inactive); with TK-10, > 100 µM (inactive); in the experiment on OVCAR-4 it was > 100 µM (inactive); in the experiment with HCC 2998 it was > 100 µM (inactive); with SW-620, > 100 µM (inactive); in the experiment on SK-MEL-2 it was 0.723 µM (active). Moreover, the GI50 in the experiment with A498, with SN12C, with SR, with NCI-H460, in the experiment with MOLT-4 and in the experiment with CCRF-CEM was > 100 µM (inactive) each time. For the same molecule, the GI50 with M14, in the experiment on IGROV-1, in the experiment with LOX IMVI and with SF-539 was > 100 µM (inactive) in each case.
Take `CNC(=S)/C(C#N)=C(\N)N1CCCC1`: the GI50 in the experiment with UO-31, with TK-10, in the experiment with HCC 2998, with SW-620, in the experiment on KM12 and in the experiment on NCI-H522 was > 100 µM (inactive) throughout. Further, the GI50 in the experiment on SK-MEL-2, in the experiment on A498, with SN12C, in the experiment with SR, in the experiment on NCI-H460 and in the experiment with NCI/ADR-RES was > 100 µM (inactive) throughout. Moreover, the GI50 in the experiment on MOLT-4, in the experiment with CCRF-CEM, in the experiment on IGROV-1 and in the experiment with SF-539 was > 100 µM (inactive) in each case.
For the molecule `O=C(C#Cc1ccccc1)N1CCCCC1`, the GI50 in the experiment with TK-10 is > 100 µM (inactive); in the experiment with OVCAR-4, 80 µM (inactive); in the experiment on HCC 2998, 84.7 µM (inactive); in the experiment with SW-620 it was 97.9 µM (inactive); in the experiment with KM12 it was > 100 µM (inactive); in the experiment on NCI-H522 it was > 100 µM (inactive). Further, the GI50 in the experiment with SK-MEL-2 was > 100 µM (inactive); in the experiment on A498 it was > 100 µM (inactive); in the experiment on SN12C, > 100 µM (inactive); in the experiment on SR, 80.4 µM (inactive); in the experiment on NCI-H460, 44.6 µM (inactive); in the experiment on MOLT-4, > 100 µM (inactive). In addition, the GI50 with CCRF-CEM is 50.8 µM (inactive); in the experiment with MCF7, 44.4 µM (inactive); in the experiment with M14, 84.1 µM (inactive); in the experiment with IGROV-1 it was 65 µM (inactive); with LOX IMVI it was 48.9 µM (inactive); in the experiment on SF-539, > 100 µM (inactive).
With `CCOC(=O)c1nc2ccc(C(F)(F)F)cc2nc1Oc1cc(OC)c(OC)c(OC)c1`, the GI50 in the experiment on UO-31 was > 100 µM (inactive); in the experiment on TK-10, 75.3 µM (inactive); in the experiment with OVCAR-4, 2.64 µM (inactive); with SW-620, 47.8 µM (inactive); in the experiment on KM12, 40.2 µM (inactive); in the experiment with SK-MEL-2 it was > 100 µM (inactive). The GI50 was > 100 µM (inactive) in the experiment with A498; > 100 µM (inactive) with SN12C; 42.5 µM (inactive) in the experiment with NCI-H460; 30.9 µM (inactive) in the experiment with NCI/ADR-RES; > 100 µM (inactive) in the experiment with MOLT-4; > 10 µM (inactive) in the experiment on CCRF-CEM. The GI50 is > 100 µM (inactive) with MCF7; > 100 µM (inactive) in the experiment with M14; 51.1 µM (inactive) in the experiment with IGROV-1; > 100 µM (inactive) in the experiment with LOX IMVI; 62.2 µM (inactive) in the experiment with SF-539.
Regarding `CC(=O)OCC1OC(n2cnc3c(I)nc(I)nc32)C(OC(C)=O)C1OC(C)=O` (stereo unspecified), the GI50 with UO-31 is 17.7 µM (inactive); in the experiment on TK-10, 19.3 µM (inactive); in the experiment on OVCAR-4, 4.71 µM (inactive); in the experiment on HCC 2998, 5.21 µM (inactive); in the experiment on SW-620 it was 13.8 µM (inactive); with KM12, 4.48 µM (inactive). For the same molecule, the GI50 in the experiment with NCI-H522 is 1.91 µM (inactive); with SK-MEL-2 it was 17.1 µM (inactive); with A498, 22.2 µM (inactive); in the experiment with SN12C, 13.5 µM (inactive); with SR, 3.13 µM (inactive); in the experiment with NCI-H460, 17.7 µM (inactive). Also, the GI50 in the experiment with MOLT-4 was 8.13 µM (inactive); in the experiment on CCRF-CEM it was 3.8 µM (inactive); with M14 it was 17.2 µM (inactive); with IGROV-1 it was 6.35 µM (inactive); in the experiment with LOX IMVI it was 14 µM (inactive); in the experiment on SF-539, 16.1 µM (inactive).

Values taken from ChEMBL document CHEMBL1201862, “PubChem BioAssay data set” (2004).
